Data: ChEMBL document CHEMBL5724914, “Linking interpersonal differences in gut microbiota composition and drug biotransformation activity” (2024)

Key:
[1] = (§1) The drug is tested on Z-030 corresponding to mouse gut metagenome with ENA study accession number: PRJEB37062 and ENA sample accession number: ERS12561829 for biotransformation under anaerobic condition. The drug concentrations were measured over 9 timepoints collected between 0 and 24 hours of incubation by liquid-chromatography-coupled mass spectrometry (LC–MS); conditions: 2 µM
[2] = as §1, with “Z-028” for “Z-030”, “ERS12561827” for “ERS12561829”; conditions: 2 µM
[3] = as §1, with “Z-022” for “Z-030”, “ERS12561821” for “ERS12561829”; conditions: 2 µM
[4] = as §1, with “Z-017” for “Z-030”, “ERS12561816” for “ERS12561829”; conditions: 2 µM
[5] = as §1, with “Z-013” for “Z-030”, “rabbit” for “mouse”, “ERS12561813” for “ERS12561829”; conditions: 2 µM
[6] = as §1, with “Z-010” for “Z-030”, “to” for “to mouse gut”, “ERS12561810” for “ERS12561829”; conditions: 2 µM
[7] = as §1, with “Z-009” for “Z-030”, “pig” for “mouse”, “ERS12561809” for “ERS12561829”; conditions: 2 µM
[8] = as §1, with “Z-005” for “Z-030”, “to” for “to mouse gut”, “ERS12561805” for “ERS12561829”; conditions: 2 µM
[9] = as §1, with “Z-002” for “Z-030”, “rabbit” for “mouse”, “ERS12561802” for “ERS12561829”; conditions: 2 µM
[10] = as §1, with “WLS-240” for “Z-030”, “human” for “mouse”, “ERS12561773” for “ERS12561829”; conditions: 2 µM
[11] = as §1, with “WLS-098” for “Z-030”, “human” for “mouse”, “ERS12561754” for “ERS12561829”; conditions: 2 µM
[12] = human gut metagenome, 24 h, 2 µM
[13] = human gut metagenome, 24 h, 2 µM; remark: listed apart in the source
[14] = human gut metagenome, 24 h, 2 µM; remark: listed apart in the source
[15] = human gut metagenome, 24 h, 2 µM; remark: listed apart in the source
[16] = human gut metagenome, 24 h, 2 µM; remark: listed apart in the source
[17] = human gut metagenome, 24 h, 2 µM; remark: listed apart in the source
[18] = human gut metagenome, 24 h, 2 µM; remark: listed apart in the source
[19] = human gut metagenome, 24 h, 2 µM; remark: listed apart in the source
[20] = human gut metagenome, 24 h, 2 µM; remark: listed apart in the source

Measured: Bacterial Biotransformation
Also: call rule not given here.

O=C1NCC2(CCN(CCc3ccccc3)CC2)O1 [FENSPIRIDE]
Compound metabolized: [3] | [9] | [16] | [19]
Compound NOT metabolized: [1] | [2] | [4] | [5] | [6] | [7] | [8] | [10] | [11] | [12] | [13] | [14] | [15] | [17] | [18] | [20]

OC(Cn1cncn1)(Cn1cncn1)c1ccc(F)cc1F [FLUCONAZOLE]
Compound NOT metabolized: [1] | [2] | [4] | [5] | [6] | [7] | [8] | [12] | [17]
Compound metabolized: [3] | [9] | [10] | [11] | [13] | [14] | [15] | [16] | [18] | [19] | [20]

CNCCC(Oc1ccc(C(F)(F)F)cc1)c1ccccc1 (stereo not given) [FLUOXETINE]
Compound metabolized: [10] | [13] | [20]
Compound NOT metabolized: [1] | [2] | [3] | [4] | [5] | [6] | [7] | [8] | [9] | [11] | [12] | [14] | [15] | [16] | [17] | [18] | [19]

O=C(CCCN1CCC(O)(c2ccc(Cl)cc2)CC1)c1ccc(F)cc1 [HALOPERIDOL]
Compound metabolized: [7] | [9] | [10] | [11] | [18] | [19] | [20]
Compound NOT metabolized: [1] | [2] | [3] | [4] | [5] | [6] | [8] | [12] | [13] | [14] | [15] | [16] | [17]

CCCCC1=NC2(CCCC2)C(=O)N1Cc1ccc(-c2ccccc2-c2nnn[nH]2)cc1 [IRBESARTAN]
Compound NOT metabolized: [1] | [2] | [3] | [4] | [5]
Compound metabolized: [6] | [7] | [8] | [9] | [10] | [11] | [12] | [13] | [14] | [15] | [16] | [17] | [18] | [19] | [20]

NC(CO)(CO)CO.O=C(c1ccccc1)c1ccc2n1CCC2C(=O)O (stereo not given) [KETOROLAC TROMETHAMINE]
Compound NOT metabolized: [1] | [2] | [4] | [5] | [7]
Compound metabolized: [3] | [6] | [8] | [9] | [10] | [11] | [12] | [13] | [14] | [15] | [16] | [17] | [18] | [19] | [20]

COc1ccc2[nH]c([S+]([O-])Cc3ncc(C)c(OC)c3C)nc2c1 (stereo not given) [OMEPRAZOLE]
Compound metabolized: [1] | [2] | [6] | [10] | [11] | [12] | [13] | [14] | [15] | [16] | [17] | [18] | [19] | [20]
Compound NOT metabolized: [3] | [4] | [5] | [7] | [8] | [9]

O=C(O)CCc1nc(-c2ccccc2)c(-c2ccccc2)o1 [OXAPROZIN]
Compound NOT metabolized: [1] | [2] | [4] | [5] | [7]
Compound metabolized: [3] | [6] | [8] | [9] | [10] | [11] | [12] | [13] | [14] | [15] | [16] | [17] | [18] | [19] | [20]
